Reference: ChEMBL document CHEMBL5052819, “Peptide targeting gip and glp-2 receptors for treating bone disorders” (2020)
Active and inactive are the calls of the source. The rule behind the calls is not given here.

Columns and labels:
RAW264.7 = test: Inhibition of RANKL-induced osteoclastogenesis in mouse RAW264.7 cells measured after 110 hrs by TRAcP staining based assay; assay type: functional, cell-based; conditions: RAW264.7, 110 h
[1] = Toxicity in ovariectomized BALB/c mouse assessed as effect on body mass at 25 to 100 nmol/kg/day, sc
HEK293 = test: Activation of GIP/GLP2 receptor transfected in human HEK293 cells assessed as increase in intracellular cAMP level at 1 nM; assay type: cell-based; conditions: filed as activator
MC3T3-E1 = test: Cytotoxicity against mouse MC3T3-E1 cells at 1 uM measured after 24 hrs by trypan blue assay; assay type: toxicity, cell-based; conditions: mc3t3-e1, 24 h
[2] = Toxicity in ovariectomized BALB/c mouse assessed as effect on body mass at 25 nmol/kg/day, sc; conditions: in vivo
Mus musculus [3] = test: Anti-osteoporosis activity in ovariectomized BALB/c mouse at 25 nmol/kg/day, sc assessed as increase in ultimate displacement of cortical bone; assay type: functional
Mus musculus [4] = test: Anti-osteoporosis activity in ovariectomized BALB/c mouse at 25 nmol/kg/day, sc assessed as increase in post-yield displacement of cortical bone; assay type: functional
Mus musculus [5] = test: Anti-osteoporosis activity in ovariectomized BALB/c mouse at 25 nmol/kg/day, sc assessed as increase in work-to-fracture of cortical bone; assay type: functional
Mus musculus [6] = test: Anti-osteoporosis activity in ovariectomized BALB/c mouse at 25 nmol/kg/day, sc assessed as effect on cortical bone microarchitecture; assay type: functional, organism-based
Mus musculus [7] = test: Anti-osteoporosis activity in ovariectomized BALB/c mouse at 25 nmol/kg/day, sc assessed as reduction in trabecular bone stiffness; assay type: functional, organism-based
Mus musculus [8] = test: Anti-osteoporosis activity in ovariectomized BALB/c mouse at 25 nmol/kg, sc assessed as increase in collagen maturity; assay type: functional
Mus musculus [9] = test: Anti-osteoporosis activity in ovariectomized BALB/c mouse at 25 nmol/kg, sc assessed as increase in collagen maturity heterogeneity; assay type: functional
Mus musculus [10] = test: Anti-osteoporosis activity in ovariectomized BALB/c mouse at 25 nmol/kg, sc assessed as increase in acid phosphate content heterogeneity; assay type: functional
Mus musculus [11] = test: Anti-osteoporosis activity in ovariectomized BALB/c mouse at 25 nmol/kg, sc assessed as decrease in mean phosphate/amide ratio; assay type: functional; parameters: scale not given: the % may be the effect or the level left
[12] = Toxicity in ovariectomized BALB/c mouse at 25 nmol/kg, sc assessed as effect on morphological changes in liver; assay type: organism-based; conditions: in vivo
[13] = Toxicity in ovariectomized BALB/c mouse at 25 nmol/kg, sc assessed as effect on morphological changes in pancreas; assay type: organism-based; conditions: in vivo

CC(C)C[C@H](NC(=O)[C@H](CCCCN)NC(=O)[C@H](CC(=O)O)NC(=O)[C@H](CC(C)C)NC(=O)[C@@H](NC(=O)[C@@H](NC(=O)[C@H](CO)NC(=O)[C@H](Cc1ccccc1)NC(=O)[C@H](CC(=O)O)NC(=O)[C@H](CO)NC(=O)[C@@H](NC(=O)[C@H](Cc1ccccc1)NC(=O)[C@H](CO)NC(=O)CNC(=O)[C@H](CCC(=O)O)NC(=O)CNC(=O)[C@@H](N)Cc1cnc[nH]1)C(C)C)C(C)C)C(C)C)C(=O)N[C@@H](C)C(=O)N[C@@H](C)C(=O)N[C@@H](CCCNC(=N)N)C(=O)N[C@@H](CC(=O)O)C(=O)N[C@@H](Cc1ccccc1)C(=O)N[C@H](C(=O)N[C@@H](CC(N)=O)C(=O)N[C@@H](Cc1c[nH]c2ccccc12)C(=O)N[C@@H](CC(C)C)C(=O)N[C@@H](CC(C)C)C(=O)N[C@@H](CCC(N)=O)C(=O)N[C@H](C(=O)N[C@@H](CCCCN)C(N)=O)[C@@H](C)O)C(C)C
IC50 (RAW264.7): 0.0096 nM

CC[C@H](C)[C@H](NC(=O)[C@H](CO)NC(=O)[C@H](Cc1ccccc1)NC(=O)[C@H](CC(=O)O)NC(=O)[C@H](CO)NC(=O)[C@@H](NC(=O)[C@H](Cc1ccccc1)NC(=O)[C@H](CO)NC(=O)CNC(=O)[C@H](CCC(=O)O)NC(=O)CNC(=O)[C@@H](N)Cc1cnc[nH]1)C(C)C)C(=O)N[C@@H](C)C(=O)N[C@@H](CC(C)C)C(=O)N[C@@H](CC(=O)O)C(=O)N[C@@H](CCCCN)C(=O)N[C@@H](CC(C)C)C(=O)N[C@@H](C)C(=O)N[C@@H](C)C(=O)N[C@@H](CCCNC(=N)N)C(=O)N[C@@H](CC(=O)O)C(=O)N[C@@H](Cc1ccccc1)C(=O)N[C@H](C(=O)N[C@@H](CC(N)=O)C(=O)N[C@@H](Cc1c[nH]c2ccccc12)C(=O)N[C@@H](CC(C)C)C(=O)N[C@@H](CC(C)C)C(=O)N[C@@H](CCC(N)=O)C(=O)N[C@H](C(=O)N[C@@H](CCCCN)C(N)=O)[C@@H](C)O)C(C)C
IC50 (RAW264.7): 0.18 nM

CC[C@H](C)[C@H](NC(=O)[C@H](CO)NC(=O)[C@H](CCSC)NC(=O)[C@H](CCC(=O)O)NC(=O)[C@H](CO)NC(=O)[C@@H](NC(=O)[C@H](Cc1ccccc1)NC(=O)[C@H](CO)NC(=O)CNC(=O)[C@H](CCC(=O)O)NC(=O)CNC(=O)[C@@H](N)Cc1cnc[nH]1)C(C)C)C(=O)N[C@H](C(=O)N[C@@H](CC(C)C)C(=O)N[C@@H](CC(=O)O)C(=O)N[C@@H](CCCCN)C(=O)N[C@@H](CC(C)C)C(=O)N[C@@H](C)C(=O)N[C@@H](C)C(=O)N[C@@H](CCCNC(=N)N)C(=O)N[C@@H](CC(=O)O)C(=O)N[C@@H](Cc1ccccc1)C(=O)N[C@H](C(=O)N[C@@H](CC(N)=O)C(=O)N[C@@H](Cc1c[nH]c2ccccc12)C(=O)N[C@@H](CC(C)C)C(=O)N[C@@H](CC(C)C)C(=O)N[C@@H](CCC(N)=O)C(=O)N[C@H](C(=O)N[C@@H](CCCCN)C(N)=O)[C@@H](C)O)C(C)C)C(C)C
IC50 (RAW264.7): 4.63 nM

CC[C@H](C)[C@H](NC(=O)[C@H](CO)NC(=O)[C@H](Cc1ccccc1)NC(=O)[C@H](CC(=O)O)NC(=O)[C@H](CO)NC(=O)[C@@H](NC(=O)[C@H](Cc1ccccc1)NC(=O)[C@H](CO)NC(=O)CNC(=O)[C@H](CCC(=O)O)NC(=O)CNC(=O)[C@@H](N)Cc1cnc[nH]1)[C@@H](C)O)C(=O)N[C@@H](C)C(=O)N[C@@H](CC(C)C)C(=O)N[C@@H](CC(=O)O)C(=O)N[C@@H](CCCCN)C(=O)N[C@@H](CC(C)C)C(=O)N[C@@H](C)C(=O)N[C@@H](C)C(=O)N[C@@H](CCCNC(=N)N)C(=O)N[C@@H](CC(=O)O)C(=O)N[C@@H](Cc1ccccc1)C(=O)N[C@H](C(=O)N[C@@H](CC(N)=O)C(=O)N[C@@H](Cc1c[nH]c2ccccc12)C(=O)N[C@@H](CC(C)C)C(=O)N[C@@H](CC(C)C)C(=O)N[C@@H](CCC(N)=O)C(=O)N[C@H](C(=O)N[C@@H](CCCCN)C(N)=O)[C@@H](C)O)C(C)C
IC50 (RAW264.7): 0.0168 nM

CSCC[C@H](NC(=O)[C@H](CC(=O)O)NC(=O)[C@H](CO)NC(=O)[C@@H](NC(=O)[C@H](Cc1ccccc1)NC(=O)[C@H](CO)NC(=O)CNC(=O)[C@H](CCC(=O)O)NC(=O)CNC(=O)[C@@H](N)Cc1cnc[nH]1)C(C)C)C(=O)N[C@@H](CO)C(=O)N[C@H](C(=O)N[C@H](C(=O)N[C@@H](CC(C)C)C(=O)N[C@@H](CC(=O)O)C(=O)N[C@@H](CCCCN)C(=O)N[C@@H](CC(C)C)C(=O)N[C@@H](C)C(=O)N[C@@H](C)C(=O)N[C@@H](CCCNC(=N)N)C(=O)N[C@@H](CC(=O)O)C(=O)N[C@@H](Cc1ccccc1)C(=O)N[C@H](C(=O)N[C@@H](CC(N)=O)C(=O)N[C@@H](Cc1c[nH]c2ccccc12)C(=O)N[C@@H](CC(C)C)C(=O)N[C@@H](CC(C)C)C(=O)N[C@@H](CCC(N)=O)C(=O)N[C@H](C(=O)N[C@@H](CCCCN)C(N)=O)[C@@H](C)O)C(C)C)C(C)C)C(C)C
IC50 (RAW264.7): 0.0116 nM

CC(C)C[C@H](NC(=O)[C@H](CCCCN)NC(=O)[C@H](CC(=O)O)NC(=O)[C@H](CC(C)C)NC(=O)[C@@H](NC(=O)[C@@H](NC(=O)[C@H](CO)NC(=O)[C@H](CC(C)C)NC(=O)[C@H](CC(=O)O)NC(=O)[C@H](CO)NC(=O)[C@@H](NC(=O)[C@H](Cc1ccccc1)NC(=O)[C@H](CO)NC(=O)CNC(=O)[C@H](CCC(=O)O)NC(=O)CNC(=O)[C@@H](N)Cc1cnc[nH]1)C(C)C)C(C)C)C(C)C)C(=O)N[C@@H](C)C(=O)N[C@@H](C)C(=O)N[C@@H](CCCNC(=N)N)C(=O)N[C@@H](CC(=O)O)C(=O)N[C@@H](Cc1ccccc1)C(=O)N[C@H](C(=O)N[C@@H](CC(N)=O)C(=O)N[C@@H](Cc1c[nH]c2ccccc12)C(=O)N[C@@H](CC(C)C)C(=O)N[C@@H](CC(C)C)C(=O)N[C@@H](CCC(N)=O)C(=O)N[C@H](C(=O)N[C@@H](CCCCN)C(N)=O)[C@@H](C)O)C(C)C
IC50 (RAW264.7): 0.0107 nM

CC[C@H](C)[C@H](NC(=O)[C@H](CO)NC(=O)[C@H](CCSC)NC(=O)[C@H](CC(=O)O)NC(=O)[C@H](CO)NC(=O)[C@@H](NC(=O)[C@H](Cc1ccccc1)NC(=O)[C@H](CO)NC(=O)CNC(=O)[C@H](CCC(=O)O)NC(=O)CNC(=O)[C@@H](N)Cc1cnc[nH]1)C(C)C)C(=O)N[C@H](C(=O)N[C@@H](CC(C)C)C(=O)N[C@@H](CC(=O)O)C(=O)N[C@@H](CCCCN)C(=O)N[C@@H](CC(C)C)C(=O)N[C@@H](C)C(=O)N[C@@H](C)C(=O)N[C@@H](CCCNC(=N)N)C(=O)N[C@@H](CC(=O)O)C(=O)N[C@@H](Cc1ccccc1)C(=O)N[C@H](C(=O)N[C@@H](CC(N)=O)C(=O)N[C@@H](Cc1c[nH]c2ccccc12)C(=O)N[C@@H](CC(C)C)C(=O)N[C@@H](CC(C)C)C(=O)N[C@@H](CCC(N)=O)C(=O)N[C@H](C(=O)N[C@@H](CCCCN)C(N)=O)[C@@H](C)O)C(C)C)C(C)C
IC50 [1]: Non-Toxic

CC[C@H](C)[C@H](NC(=O)[C@H](CO)NC(=O)[C@H](Cc1ccc(O)cc1)NC(=O)[C@H](CC(=O)O)NC(=O)[C@H](CO)NC(=O)[C@@H](NC(=O)[C@H](Cc1ccccc1)NC(=O)[C@@H](NC(=O)CNC(=O)[C@H](CCC(=O)O)NC(=O)[C@@H](C)NC(=O)[C@@H](N)Cc1ccc(O)cc1)[C@@H](C)O)[C@@H](C)CC)C(=O)N[C@@H](C)C(=O)N[C@@H](CCSC)C(=O)N[C@@H](CC(=O)O)C(=O)N[C@@H](CCCCN)C(=O)N[C@H](C(=O)N[C@@H](Cc1cnc[nH]1)C(=O)N[C@@H](CCC(N)=O)C(=O)N[C@@H](CCC(N)=O)C(=O)N[C@@H](CC(=O)O)C(=O)N[C@@H](Cc1ccccc1)C(=O)N[C@H](C(=O)N[C@@H](CC(N)=O)C(=O)N[C@@H](Cc1c[nH]c2ccccc12)C(=O)N[C@@H](CC(C)C)C(=O)N[C@@H](CC(C)C)C(=O)N[C@@H](C)C(=O)N[C@@H](CCC(N)=O)C(=O)N[C@@H](CCCCN)C(N)=O)C(C)C)[C@@H](C)CC
IC50 (RAW264.7): 0.0401 nM
Activity (HEK293): Active

CC[C@H](C)[C@H](NC(=O)[C@H](CO)NC(=O)[C@H](CCSC)NC(=O)[C@H](CC(=O)O)NC(=O)[C@H](CO)NC(=O)CNC(=O)[C@H](Cc1ccccc1)NC(=O)[C@H](CO)NC(=O)CNC(=O)[C@H](CCC(=O)O)NC(=O)CNC(=O)[C@@H](N)Cc1cnc[nH]1)C(=O)N[C@@H](C)C(=O)N[C@@H](CC(C)C)C(=O)N[C@@H](CC(=O)O)C(=O)N[C@@H](CCCCN)C(=O)N[C@@H](CC(C)C)C(=O)N[C@@H](C)C(=O)N[C@@H](C)C(=O)N[C@@H](CCCNC(=N)N)C(=O)N[C@@H](CC(=O)O)C(=O)N[C@@H](Cc1ccccc1)C(=O)N[C@H](C(=O)N[C@@H](CC(N)=O)C(=O)N[C@@H](Cc1c[nH]c2ccccc12)C(=O)N[C@@H](CC(C)C)C(=O)N[C@@H](CC(C)C)C(=O)N[C@@H](CCC(N)=O)C(=O)N[C@H](C(=O)N[C@@H](CCCCN)C(=O)N[C@H](C(=O)N[C@H](C(=O)N[C@@H](CC(=O)O)C(N)=O)[C@@H](C)O)[C@@H](C)CC)[C@@H](C)O)C(C)C
Activity (MC3T3-E1): Non-Toxic
IC50 (RAW264.7): 0.0182 nM
Activity [2]: Non-Toxic
Activity (Mus musculus [3]): 34%
Activity (Mus musculus [4]): 70%
Activity (Mus musculus [5]): 37%
Activity (Mus musculus [6]): inactive
Activity (Mus musculus [7]): Active
Activity (Mus musculus [8]): 10%
Activity (Mus musculus [9]): 28%
Activity (Mus musculus [10]): 21%
Activity (Mus musculus [11]): 6%
Activity [12]: Non-Toxic
Activity [13]: Non-Toxic
Activity (HEK293): Active
